Laboratory results from patent publication US6479233B1, “Electrogenerated chemiluminescence labels for analysis and/or referencing” (IGEN International, Inc., priority 1994, dated 2002).
Read-outs that look alike come from different tables or passages of the source.

Key:
[1] = Fluorescence spectra (CCD camera, 366 nm UV excitation); format: physicochemical; settings: for fluorescence maximum: pH 8.5 sodium phosphate buffer
Method: (§1) Fluorescence and ECL spectra were recorded using a charge-coupled device (CCD) camera and spectrometer (1 mm entrance slit) interfaced to a Dell System 200 personal computer (Austin, Tex.) as previously described. The same procedures (spectral calibration etc.) were followed except that different pulse sequences were used and the CCD detector was maintained at −110° C. for the TPrA/THCOOH and TPrA/DPAS experiments and −100° C. for the S2O8^2−/DPAS experiments. Excitation for the fluorescence spectra was achieved by holding a longwave (366 nm) UV lamp (UVP, Inc., San Gabriel, Calif.; model UVGL-25; sold by Fisher Scientific, Pittsburgh, Pa.) next to the cell and at right angles to the entrance slit of the spectrometer.

[2] = ECL spectra (CCD camera and spectrometer); format: physicochemical; set-up: wavelength centered emission: unit not given here; settings: for ECL maximum: pH 8.5 sodium phosphate buffer
Method: as §1
The DPAS/TPrA ECL spectrum and emission vs. potential scans utilized a 6×9 mm Pt gauze flag (52 mesh gauze; Aldrich) working electrode, an AgQRE and a round (9 mm diameter, 0.5 mm thick) Au foil counter electrode. The 2-THCOOH ECL spectrum also utilized this arrangement. The gauze working electrode was cleaned prior to each experiment by immersion in concentrated nitric acid followed by rinsing in distilled water and heating in a bunsen burner flame.
The DPAS/S2O8^2− ECL spectrum and emission vs. potential scan utilized a 2.0 mm diameter Pt disk working electrode sealed in glass in combination with a Pt wire counter electrode and AgQRE.

[3] = Cyclic voltammetry / standard potentials; format: physicochemical
Method: Cyclic voltammetry without photon detection was obtained by using either a BAS 100A Electrochemical Analyzer (Bioanalytical Systems, West Lafayette, Ind.) or a Princeton Applied Research (PAR) model 173/175 potentiostat/universal programmer (Princeton, N.J.) and Omnigraphic 20000 X-Y recorder (Bausch and Lomb-Houston Instrument Division, Austin, Tex.). Cyclic voltammograms with simultaneous photon detection were recorded using the PAR 173/175 in conjunction with a Hamamatsu C1230 photon counter (Bridgewater, N.J.) equipped with a Hamamatsu R928-P photomultiplier tube. The photomultiplier tube was housed in a water jacketed Products For Research, Inc. model TE308TSRF refrigerated chamber maintained at −10° C. Primary cooling of the water jacket to 10° C. was accomplished using an MGW Lauda model RMS6 refrigeration unit (sold by Brinkmann Instruments Co., Westbury, N.Y.). For plots of ECL intensity vs. potential, the output from the photon counter was fed into the Y-axis of the X-Y recorder during potential scans.
Except where noted, all electrochemical and ECL experiments utilized a conventional 3-electrode cell configuration. Pt disk working electrodes were polished on a felt pad (Buehler, Ltd., Lake Bluff, Ill.) before each experiment run with 0.05 μm alumina (Buehler, Ltd.) suspended in water.
For cyclic voltammetry runs without photon detection, the CPZ embodiment utilized a highly-oriented pyrolytic graphite (HOPG; Union Carbide, Cleveland, Ohio) working electrode (6 mm dia. disk with freshly exposed material for each experiment), Pt wire counter electrode and Ag quasi-reference electrode (AgQRE) in a recently describe configuration. See Xu, X.; Bard, A. J. Langmuir, 1994, 10, 2409. Similar runs for all other compounds utilized a 1.5 mm diameter Pt disk working electrode sealed in glass in combination with a Pt wire counter electrode and AgQRE.
Nonaqueous potential referencing to ferrocene was accomplished by adding the standard directly to the solutions. […]

[4] = Maximum solubility of aqueous DPAS in sodium phosphate buffer; format: physicochemical; settings: 0.15 M sodium phosphate buffer (pH 7.5)
Text: The maximum solubility of aqueous DPAS in 0.15 M sodium phosphate buffer (pH 7.5) is approximately 1×10^−5 M. At this low concentration, no anodic current can be observed for DPAS above the background oxidation of water as shown in FIG. 1. However, if 1×10^−5 M DPAS is oxidized in the presence of 0.15 M TPrA, an emission that coincides with an oxidation wave occurs that is superimposed on the TPrA oxidation and background oxidation of water as shown in FIGS. 2a-2b. The fact that an oxidation current is observed for 1×10^−5 M DPAS only in the presence of TPrA implicates a catalytic current enhancement due to the regeneration of DPAS via reduction of DPAS^+ by TPrA or an intermediate. For this catalysis, the cyclic sequence of reactions is analogous to equation schemes (5), (6a), (7), (8) or (10) and (11), and (9) above where Ru(bpy)3^3+/2+/+ is replaced by DPAS^+/0/− respectively, XY^z is TPrA, X^x is Pr2NCH.Et and Y^y is H^+. Despite the low DPAS concentration, 1×10^−5 M, this emission is visibly blue when viewed in a dark room and no emission is observed in the absence of either TPrA or DPAS.

[5] = set-up: peak emission: unit not given here; settings: cited from earlier work; for fluorescence efficiency φF: aqueous media
[6] = non-aqueous ion annihilation scheme; cited from earlier work

SMILES: O=C(O)c1cccc2c1Sc1ccccc1S2 [1-THCOOH, 1-thianthrenecarboxylic acid]
- fluorescence maximum ([1]; 0.15 M TPrA): 505 nm
- ECL maximum ([2]; 0.15 M TPrA): 570 nm

SMILES: O=C(O)c1ccc2c(c1)Sc1ccccc1S2 [2-THCOOH, 2-thianthrenecarboxylic acid]
- fluorescence maximum ([1]; 0.15 M TPrA): 480 nm
- ECL maximum ([2]; 0.15 M TPrA): 570 nm
- oxidation potential ([3]; aqueous solution, pH 8.5 sodium phosphate buffer, Pt electrode, vs SCE): ~+1.0 V

SMILES: O=S(=O)([O-])c1ccc2c(-c3ccccc3)c3ccccc3c(-c3ccccc3)c2c1.[Na+] [DPAS, sodium 9,10-diphenylanthracene-2-sulfonate]
- solubility [4]: ~10 µM
- singlet excited state energy Es [1]: 2.9 eV
- fluorescence peak intensity wavelength ([1]; 1.1 mM DPAS, 25 mM (NH4)2S2O8, MeCN-water 1:1): 430 nm
- fluorescence peak intensity wavelength ([1]; 1×10^−5 M DPAS, 0.15 M TPrA, pH 7.5 sodium phosphate buffer): 430 nm
- ECL peak intensity wavelength ([2]; 1.1 mM DPAS, 25 mM (NH4)2S2O8, MeCN-water 1:1, reduction at −2.2 V vs SCE): 430 nm
- ECL peak intensity wavelength ([2]; 1×10^−5 M DPAS, 0.15 M TPrA, pH 7.5 sodium phosphate buffer, oxidation): 430 nm
- wavelength centered emission ([2]; emission spectra of FIG. 19): 430
- E° of DPAS+/DPAS ([3]; oxidation): ≈ +1.3 V vs SCE
- E° of DPAS/DPAS− ([3]; reduction): ≈ −1.9 V vs SCE
- fluorescence efficiency φF [5]: 0.87
- peak emission ([5]; fluorescence): 428

SMILES: [Ru+2].c1ccc(-c2ccccn2)nc1.c1ccc(-c2ccccn2)nc1.c1ccc(-c2ccccn2)nc1 [Ru(bpy)3^2+, tris (2,2-bipyridine)ruthenium(II), reference compound]
- fluorescence efficiency φF [5]: about 0.05

SMILES: c1ccc2c(c1)Sc1ccccc1S2 [thianthrene, reference compound]
- emission maximum of fluorescence ([5]; in MeCN): 434 nm
- ECL peak intensity wavelength [6]: 434 nm
